# Results published in US20230126447A1, “OCULAR DRUG DEPOT FOR COMPLEMENT-MEDIATED DISORDERS” (priority 2020, published 2023).
# Test: Ocular tissue and plasma pharmacokinetics, 50 mg/kg BID oral, Dutch Belted rabbits (Example 4/5)
# Format: in vivo
# Conditions: DB rabbit; for Mean Choroid-RPE concentration / Mean Iris-Ciliary Body concentration / Mean plasma concentration / Mean retina concentration / Optic Nerve concentration / Vitreous concentration: 50 mg/kg BID oral; for Mean Choroid-RPE concentration / Mean Iris-Ciliary Body concentration / Mean plasma concentration / Mean retina concentration: 50 mg/kg
# Protocol: Study design, including group designation and dose levels, are outlined in Table 15. […] Two Dutch Belted rabbits received vehicle only oral gavage doses for tolerability assessment. […] The dose volume was 5 mL/kg/dose for all groups. Safety was assessed with toxicological and ophthalmic examinations, including slit lamp biomicroscopy, indirect ophthalmoscopy, rebound tonometry, and ultrasonic corneal pachymetry.
# For the pharmacokinetic determination, a single blood sample was taken from each rabbit from Groups 1 and 4 at one hour post-dose on Day 15, Group 2 at one hour post-dose on Day 8, and Group 3 at pre-dose, 1, 6, 24, 96, 168, and 240 hours post-dose on Day 15, with the eyes collected at the same time as blood sampling. Plasma, vitreous humor (VH), retina, choroid-retina pigmented epithelium (Choroid-RPE), optic nerve (ON), and iris-ciliary body (I-CB) were analyzed by LC-MS/MS to quantify test article concentrations. The lower limit of quantitation (LLOQ) in plasma and vitreous humor was 1.0 ng/mL. The LLOQ was 6.0 ng/g in retina, choroid-RPE, and I-CB and the optic nerve LLOQ was 15 ng/g, assuming tissue density of 1 g/mL where relevant. […]
# [1] = Choroid-RPE, 50 mg/kg BID, Day 15
# [2] = Iris-Ciliary Body, 50 mg/kg BID, Day 15
# [3] = Optic Nerve, 50 mg/kg BID, Day 15
# [4] = Vitreous Humor, 50 mg/kg BID, Day 15
# [5] = male, Dutch Belted, po, Choroid-RPE, 50 mg/kg BID, Day 15
# [6] = male, Dutch Belted, po, Iris-Ciliary Body, 50 mg/kg BID, Day 15
compound,measurement,setting,value
"CC(=O)c1nn(CC(=O)N2C[C@H](F)C[C@H]2C(=O)Nc2cccc(Br)n2)c2ccc(-c3cnc(C)nc3)cc12 [Compound 1, (2S,4R)-1-(2-(3-Acetyl-5-(2-methylpyrimidin-5-yl)-1H-indazol-1-yl)acetyl)-N-(6-bromopyridin-2-yl)-4-fluoropyrrolidine-2-carboxamide]",AUC(0-t),[1],274000 ng·h/g
same,AUC(0-∞),[1],292000 ng·h/g
same,Tlast,[1],240 h
same,Optic nerve concentration after 24 hours post-dose (non-detectable),50 mg/kg BID for 14 days,< 1.0 ng/mL
same,Plasma concentration after 24 hours post-dose (non-detectable),50 mg/kg BID for 14 days,< 1.0 ng/mL
same,Vitreous humor concentration after 24 hours post-dose (non-detectable),50 mg/kg BID for 14 days,< 1.0 ng/mL
same,Mean Choroid-RPE concentration,"Day 15, 0 h",3918 ± 950 ng/g
same,Mean Iris-Ciliary Body concentration,"Day 15, 0 h",5076 ± 586 ng/g
same,Mean plasma concentration,"Day 15, 0 h",104 ± 68 ng/mL
same,Mean retina concentration,"Day 15, 0 h",159 ± 87.9 ng/g
same,Mean Choroid-RPE concentration,"Day 15, 1 h",8025 ± 2350 ng/g
same,Mean Iris-Ciliary Body concentration,"Day 15, 1 h",11475 ± 2022 ng/g
same,Mean plasma concentration,"Day 15, 1 h",2895 ± 884 ng/mL
same,Mean retina concentration,"Day 15, 1 h",2122 ± 376 ng/g
same,Mean Choroid-RPE concentration,"Day 15, 6 h",4373 ± 1586 ng/g
same,Mean Iris-Ciliary Body concentration,"Day 15, 6 h",8822 ± 2621 ng/g
same,Mean plasma concentration,"Day 15, 6 h",321 ± 70.0 ng/mL
same,Mean retina concentration,"Day 15, 6 h",725 ± 117 ng/g
same,Mean Choroid-RPE concentration,"Day 15, 24 h",2097 ± 273 ng/g
same,Mean Iris-Ciliary Body concentration,"Day 15, 24 h",5556 ± 2128 ng/g
same,Mean plasma concentration,"Day 15, 24 h",39.9 ± 4.45 ng/mL
same,Mean retina concentration,"Day 15, 24 h",265 ± 113 ng/g
same,Optic Nerve concentration,"Day 15, 96 h",BLQ^b
same,Vitreous concentration,"Day 15, 96 h",BLQ^c
same,Mean Choroid-RPE concentration,"Day 15, 96 h",873 ± 392 ng/g
same,Mean Iris-Ciliary Body concentration,"Day 15, 96 h",2837 ± 1136 ng/g
same,Mean plasma concentration,"Day 15, 96 h",BLQ^a and BLQ
same,Mean retina concentration,"Day 15, 96 h",32.3 ± 24.2 ng/g
same,Optic Nerve concentration,"Day 15, 168 h",BLQ^b
same,Vitreous concentration,"Day 15, 168 h",BLQ^c
same,Mean Choroid-RPE concentration,"Day 15, 168 h",645 ± 67.2 ng/g
same,Mean Iris-Ciliary Body concentration,"Day 15, 168 h",2292 ± 445 ng/g
same,Mean plasma concentration,"Day 15, 168 h",BLQ^a and BLQ
same,Mean retina concentration,"Day 15, 168 h",54.9 ± 7.28 ng/g
same,Optic Nerve concentration,"Day 15, 240 h",BLQ^b
same,Vitreous concentration,"Day 15, 240 h",BLQ^c
same,Mean Choroid-RPE concentration,"Day 15, 240 h",195 ± 41.5 ng/g
same,Mean Iris-Ciliary Body concentration,"Day 15, 240 h",1624 ± 1275 ng/g
same,Mean plasma concentration,"Day 15, 240 h",BLQ^a and BLQ
same,Mean retina concentration,"Day 15, 240 h",39.4 ± 20.1 ng/g
same,AUC(0-t),[2],801000 ng·h/g
same,AUC(0-∞),[2],1220000 ng·h/g
same,Tlast,[2],240 h
same,AUC(0-t),[3],4880 ng·h/g
same,AUC(0-∞),[3],5180 ng·h/g
same,AUC(0-t),"Retina, 50 mg/kg BID, Day 15",30300 ng·h/g
same,AUC(0-∞),"Retina, 50 mg/kg BID, Day 15",35700 ng·h/g
same,Tlast,"Retina, 50 mg/kg BID, Day 15",240 h
same,AUC(0-t),[4],419 ng·h/g
same,AUC(0-∞),[4],442 ng·h/g
same,Tlast,[4],24 h
same,Cmax,[5],8020 ng/g
same,MRT last,[5],68.6 h
same,Tmax,[5],1 h
same,half-life,[5],66.4 h
same,Cmax,[6],11500 ng/g
same,MRT inf,[6],138 h
same,MRT last,[6],88 h
same,Tmax,[6],1 h
same,half-life,[6],178 h
